Test results from PMC8906008 (Antiviral Research, 2022).
Read-outs that look alike come from different tables or passages of the source.

What was measured:
[1] = target: SARS-CoV-2 nsp5 (nsp4-5-6 WT) (Severe acute respiratory syndrome coronavirus 2, UniProt P0DTD1); assay: cell-based; settings: for inhibition at 10 µM: HEK-293T
[2] = target: purified SARS-CoV-2 nsp5 protein (Severe acute respiratory syndrome coronavirus 2, UniProt P0DTD1); assay: biochemical
[3] = system: SARS-CoV-2; assay: microbe, parasite or virus in culture; assay type: cell-based
[4] = system: SARS-CoV-2 nsp5; settings: read-out: reported in vitro IC50; ref Ma et al., 2021; cited from earlier work
[5] = read-out: Primary screen nsp5-WT RLU (%)
[6] = read-out: Secondary screen nsp5-WT RLU (%)

## Cc1nc(Nc2ncc(C(=O)Nc3c(C)cccc3Cl)s2)cc(N2CCN(CCO)CC2)n1 [compound 21, Dasatinib (BMS-354825)]
[1]; [5]
  inhibition at 10 µM: 11.6%
[1]; [6]
  inhibition at 10 µM: 10.7 ± 1.7%

## COc1cc(NC(=O)Nc2cccc(CNC(=O)O[C@H]3CCOC3)c2)ccc1-c1cnco1 [compound 5, Merimepodib]
[2]
  IC50: > 600 µM
  inhibition of nsp5 protease activity in vitro: does not efficiently inhibit
[1]
  IC50: < 50 µM
[1]; [5]
  inhibition at 10 µM: 46.1%
[1]; [6]
  inhibition at 10 µM: 39%
[3]; EC50 to CC50 ratio, A549-ACE2 cells
  SI (selectivity index): 1.5
[3]; Severe acute respiratory syndrome coronavirus 2, A549-ACE2, read-out: EC50 inhibition of SARS-CoV-2 replication
  EC50: 21 µM

## C=CC(=O)Nc1cccc(Nc2nc(Nc3ccc(N4CCN(C(C)=O)CC4)cc3OC)ncc2C(F)(F)F)c1 [compound 20, Rociletinib (CO-1686. AVL-301)]
[1]; [5]
  inhibition at 10 µM: 13.3%
[1]; [6]
  inhibition at 10 µM: 9.7 ± 1.9%

## Cc1sc2c(c1C)C(c1ccc(Cl)cc1)=N[C@@H](CC(=O)Nc1ccc(O)cc1)c1nnc(C)n1-2 [compound 7, OTX015]
[1]; [5]
  inhibition at 10 µM: 31.8%
[1]; [6]
  inhibition at 10 µM: 31.5 ± 11%

## CC(C)(C)c1cnc(CSc2cnc(NC(=O)C3CCNCC3)s2)o1 [compound 17, SNS-032 (BMS-387032)]
[1]; [5]
  inhibition at 10 µM: 15.7%
[1]; [6]
  inhibition at 10 µM: 10.7 ± 1.1%

## CNCc1ccc(C)c(NC(=O)c2ccc(Nc3nc(-c4ccccc4)c4ccccc4n3)cc2)c1 [compound 16, BMS-833923 (XL139)]
[1]; [5]
  inhibition at 10 µM: 16.4%
[1]; [6]
  inhibition at 10 µM: 16.2 ± 2.1%

## O=C(Nc1c[nH]nc1-c1nc2ccc(CN3CCOCC3)cc2[nH]1)NC1CC1 [compound 10, AT9283]
[1]; [5]
  inhibition at 10 µM: 24%
[1]; [6]
  inhibition at 10 µM: 14.7 ± 0.8%

## CC[C@@H]1C(=O)N(C)c2cnc(Nc3ccc(C(=O)N[C@H]4CC[C@H](N5CCN(CC6CC6)CC5)CC4)cc3OC)nc2N1C(C)C [compound 4, Volasertib (BI6727)]
[1]; [5]
  inhibition at 10 µM: 83.9%
[1]; [6]
  inhibition at 10 µM: 114 ± 8.9%

## Cc1cnc(Nc2ccc(OCCN3CCCC3)cc2)nc1Nc1cccc(S(=O)(=O)NC(C)(C)C)c1 [compound 6, Fedratinib (SAR302503)]
[1]; [5]
  inhibition at 10 µM: 32.7%
[1]; [6]
  inhibition at 10 µM: 57.6 ± 8.6%

## O=C(NC(Cc1cc(=O)[nH]c2ccccc12)C(=O)O)c1ccc(Cl)cc1 (stereo not drawn) [compound 43, Rebamipide]
[1]; [6]
  inhibition at 10 µM: -1.5 ± 0.5%

## Cc1cnc(Nc2ccc(N3CCN(C)CC3)cc2)nc1Nc1cccc(S(=O)(=O)NC(C)(C)C)c1 [compound 8, TG101209]
[1]
  Primary screen nsp5-WT RLU (%): 30.0%
  Secondary screen nsp5-WT RLU (%): 34.9 ± 4.0%

## CCOC(=O)C1=C(C)NC(C)=C(C(=O)OCC)C1c1ccccc1/C=C/C(=O)OC(C)(C)C [compound 3, Lacidipine]
[1]; [5]
  inhibition at 10 µM: 10.2%
[1]; [6]
  inhibition at 10 µM: 8.9 ± 0.7%

## UNC2881 [compound 1]
[1]
  Primary screen nsp5-WT RLU (%): 29.5%
  Secondary screen nsp5-WT RLU (%): 18.2 ± 0.5%

## C1=C/COCc2cc(ccc2OCCN2CCCC2)Nc2nccc(n2)-c2cccc(c2)COC/1 [Compound #9, Pacritinib (SB1518)]
[1]; [5]
  inhibition at 10 µM: 28.2%
[1]; [6]
  inhibition at 10 µM: 15.3 ± 1.3%

## C=CC(=O)Nc1cc(Nc2nccc(-c3cn(C)c4ccccc34)n2)c(OC)cc1N(C)CCN(C)C [compound 23, Osimertinib (AZD9291)]
[1]
  Primary screen nsp5-WT RLU (%): 10.1%
  Secondary screen nsp5-WT RLU (%): 8.3 ± 2.3%

## CC(C)(C(=O)c1cccnc1)c1cccnc1 [compound 44, Metyrapone]
[1]; [6]
  inhibition at 10 µM: -1.4 ± 0.2%

## COCCOc1ccc2c(c1)ncn2-c1ccc2cccc(N3CCC(N)CC3)c2n1 [compound 12, CP 673451]
[1]; [5]
  inhibition at 10 µM: 19.4%
[1]; [6]
  inhibition at 10 µM: 13.9 ± 0.9%
